# Test results: patent US11976083B2, “Inhibitors of peptidylarginine deiminases” (Gilead Sciences, Inc., priority 2020, dated 2024)
# Target: T1, human PAD4 (Homo sapiens, UniProt Q9UM07)
# T1 construct: human PAD4 (NM_012387), A2-P663, was PCR amplified; His-SUMO (N, cleaved yes); made in house; host or cells: E. coli BL21(DE3)
# Assay: In vitro PAD4 BAEE biochemical assay
# Details: BAEE substrate 3 mM, 5 nM PAD4, 2 mM calcium chloride; geometric mean of multiple experiments
# Method in brief: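 Recombinant PAD4 (5 nM final) with 2 mM CaCl2 was preincubated with compound for 30 min at 25 °C in MOPS pH 7.6 buffer with DTT, then reacted with 3 mM BAEE for 2 h at 25 °C. Released ammonia was detected fluorimetrically with o-phthalaldehyde/DTT; IC50 from four-parameter fit, geometric mean of experiments.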
# T1 sequence (Q9UM07 2-663): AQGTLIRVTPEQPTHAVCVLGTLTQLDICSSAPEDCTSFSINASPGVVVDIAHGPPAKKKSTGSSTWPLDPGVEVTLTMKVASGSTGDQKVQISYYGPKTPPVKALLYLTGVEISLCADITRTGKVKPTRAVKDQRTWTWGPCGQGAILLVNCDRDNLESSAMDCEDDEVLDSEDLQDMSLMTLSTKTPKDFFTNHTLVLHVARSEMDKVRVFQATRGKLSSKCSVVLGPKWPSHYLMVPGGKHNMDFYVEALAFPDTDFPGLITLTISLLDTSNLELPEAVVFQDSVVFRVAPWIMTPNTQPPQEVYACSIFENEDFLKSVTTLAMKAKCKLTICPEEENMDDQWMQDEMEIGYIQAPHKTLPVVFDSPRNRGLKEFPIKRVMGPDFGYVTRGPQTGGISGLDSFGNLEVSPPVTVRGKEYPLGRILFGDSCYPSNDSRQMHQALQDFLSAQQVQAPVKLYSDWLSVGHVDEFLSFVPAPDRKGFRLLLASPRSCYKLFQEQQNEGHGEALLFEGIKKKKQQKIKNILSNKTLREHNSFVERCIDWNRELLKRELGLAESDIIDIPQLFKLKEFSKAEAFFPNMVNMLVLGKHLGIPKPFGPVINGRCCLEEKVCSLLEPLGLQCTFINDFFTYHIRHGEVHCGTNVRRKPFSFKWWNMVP
row,IC50,SMILES
1,237 nM,"COc1cc(C(=O)N2C[C@H](N)C[C@H](O)[C@@H]2C)cc2nc(-c3cc4ccc5nc4n3CCCCCCC(C)(C)C(=O)N[C@@H]5C)n(C)c12 [Example 786, (11~{R})-17-[5-[(2~{S},3~ {S},5~{R})-5-amino-3-hydroxy-2-methyl-piperidine-1-carbonyl]-7-methoxy-1-methyl-benzimidazol-2-yl]-8,8,11-trimethyl-1,10,19-triazatricyclo[10.5.2.0^ {15,18}]nonadeca-12,14,16,18-tetraen-9-one]"
2,129 nM,"C[C@H]1NC(=O)[C@@]2(C)C[C@@H]2CCCC(F)(F)Cn2c(-c3nc4cc(C(=O)N[C@H]5CNCC[C@@H]5F)c(F)cc4n3C)cc3ccc1nc32 [Example 549, 2-[(2~{R},5~{S},7~ {S})-11,11-difluoro-2,5-dimethyl-4-oxo-3,13,19-triazatetracyclo [11.5.2.0^{5,7).0^ {16,20}]icosa-1(19), 14,16(20),17-tetraen-14-yl]-6-fluoro-~{N}-[(3~ {S},4~{S})-4-fluoro-3-piperidyl]-1-methyl-benzimidazole-5-carboxamide]"
3,56 nM,"COc1cc(C(=O)N2[C@H]3CC[C@@H]2[C@H](N)C3)cc2nc(-c3cc4ccc5nc4n3C[C@@H]3[C@H](COCCC(=O)N[C@@H]5C)C3(C)C)n(C)c12 (single isomer, unassigned) [Example 10, (3˜{R},5˜{S},12˜{R})-18-[5-[(1˜{R},2˜{R},4˜{S})-2-amino-7-azabicyclo[2.2.1]heptane-7-carbonyl]-7-methoxy-1-methyl-benzimidazol-2-yl]-4,4,12-trimethyl-7-oxa-1,11,20-triazatetracyclo[11.5.2.0^{3,5}.0^{16,19}]icosa-13(20),14,16(19),17-tetraen-10-one]"
4,87 nM,"Cc1cc2c(cc1C(=O)N[C@H]1CNCC[C@@H]1F)nc(-c1cc3ccc4nc3n1CCCCCCC(C)(C)C(=O)N[C@@H]4C)n2C [Example 537, ~{N}-[(3~{S},4~ {S})-4-fluoro-3-piperidyl]-1,6-dimethyl-2-[(11~{R})-8,8,11-trimethyl-9-oxo-1,10,19-triazatricyclo [10.5.2.0^{15,18}]nonadeca-12(19),13,15(18), 16-tetraen-17-yl]benzimidazole-5-carboxamide]"
5,35 nM,"C[C@H]1NC(=O)c2cnc(C(F)(F)F)cc2CCCCCn2c(-c3nc4cc(C(=O)N5C[C@H](N)[C@@H]6CC[C@H]5C6)cc(F)c4n3C3CC3)cc3ccc1nc32 [Example 844, (2~{R})-17-[5-[(1~{S},4~ {R},5~{R})-4-amino-2-azabicyclo [3.2.1]octane-2-carbonyl]-1-cyclopropyl-7-fluoro-benzimidazol-2-yl]-2-methyl-8-(trifluoromethyl)-3,7,16,22-tetrazatetracyclo[14.5.2.0^ {5,10).0^{19,23}]tricosa-1(22),5(10),6,8,17,19(23),20-heptaen-4-one]"
6,150 nM,"COc1cc(C(=O)N2CCC[C@@H](N)C2)cc2nc(-c3cc4ccc5nc4n3CCCCOCCC(=O)N3CCC[C@H]53)n(C)c12 [Example 108, (2~{R})-16-[5-[(3~{R})-3-aminopiperidine-1-carbonyl]-7-methoxy-1-methyl-benzimidazol-2-yl]-10-oxa-6,15,21-triazatetracyclo[13.5.2.0^{2,6}.0^{18,22}] docosa-1(21),16,18(22),19-tetraen-7-one]"
7,15 nM,"COc1cc(C(=O)N2[C@H]3CC[C@@H]2[C@H](N)C3)cc2nc(-c3cc4ccc5nc4n3C[C@H]3C[C@@H]3COCCC(=O)N[C@@H]5C)c(C3CC3)n12 [Example 214, (3~{S),5~{S},12~{R})-18-[7-[(1~{R},2~{R},4~{S})-2-amino-7-azabicyclo[2.2.1]heptane-7-carbonyl]-3-cyclopropyl-5-methoxy-imidazo[1,2-a]pyridin-2-yl]-12-methyl-7-oxa-1,11,20-triazatetracyclo[11.5.2.0^{3,5}.0^{16,19}] icosa-13(20),14,16(19),17-tetraen-10-one]"
8,83 nM,"COc1cc(C(=O)N2CC[C@@H](OC)[C@@H](N)C2)cc2nc(-c3cc4ccc5nc4n3CCCCCc3cnccc3C(=O)N[C@@H]5C)n(C)c12 [Example 358, (2~{R})-17-[5-[(3~{S},4~{R})-3-amino-4-methoxy-piperidine-1-carbonyl]-7-methoxy-1-methyl-benzimidazol-2-yl]-2-methyl-3,8,16,22-tetrazatetracyclo[14.5.2.0^{5,10}.0^{19,23}] tricosa-1(22),5,7,9,17,19(23),20-heptaen-4-one]"
9,459 nM,"COc1cc(C(=O)N2CC[C@@H](OC)[C@@H](N)C2)cc2nc(-c3cc4ccc5nc4n3CCCC(F)(F)C[C@@H]3C[C@@H]3C(=O)N[C@@H]5C)n(C)c12 [Example 858, (2~{R},5~{S},7~{S})-14-[5-[(3~{S},4~{R})-3-amino-4-methoxy-piperidine-1-carbonyl]-7-methoxy-1-methyl-benzimidazol-2-yl]-9,9-difluoro-2-methyl-3,13,19-triazatetracyclo [11.5.2.0^{5,7}.0^{16,20}] icosa-1(19),14,16(20), 17-tetraen-4-one]"
10,70 nM,"C[C@H]1NC(=O)[C@H]2C[C@@H]2CC(F)(F)CCCn2c(-c3nc4cc(C(=O)N[C@H]5CNCC[C@@H]5F)c(F)cc4n3C)cc3ccc1nc32 [Example 624, 2-[(2~{R},5~{S},7~{R})-9,9-difluoro-2-methyl-4-oxo-3,13,19-triazatetracyclo[11.5.2.0^ {5,7).0^{16,20}]icosa-1(19),14,16(20), 17-tetraen-14-yl]-6-fluoro-~{N}-[(3~{S},4~ {S})-4-fluoro-3-piperidyl]-1-methyl-benzimidazole-5-carboxamide]"
11,146 nM,"COc1cc(C(=O)N2CC[C@@H](OC)[C@@H](N)C2)cc2nc(-c3cc4ccc5nc4n3CC(F)(F)CCCCC3(CC3)C(=O)N[C@@H]5C)n(C)c12 [Example 823, (11~{R})-17-[5-[(3~ {S},4~{R})-3-amino-4-methoxy-piperidine-1-carbonyl]-7-methoxy-1-methyl-benzimidazol-2-yl]-3,3-difluoro-11-methyl-spiro[1,10,19-triazatricyclo[10.5.2.0^ {15,18}]nonadeca-12 (19),13,15(18),16-tetraene-8,1′-cyclopropane]-9-one]"
12,57 nM,"C[C@H]1NC(=O)c2ccc(Cl)nc2CCCCCn2c(-c3nc4cc(C(=O)N5C[C@H](N)[C@@H]6CC[C@H]5C6)c(F)c(F)c4n3C3CC3)cc3ccc1nc32 [Example 456, (2~{R})-17-[5-[(1~{S},4~{R},5~{R})-4-amino-2-azabicyclo[3.2.1]octane-2-carbonyl]-1-cyclopropyl-6,7-difluoro-benzimidazol-2-yl]-8-chloro-2-methyl-3,9,16,22-tetrazatetracyclo[14.5.2.0^{5,10}.0^{19,23}] tricosa-1(22),5(10),6,8,17,19(23),20-heptaen-4-one]"
13,77 nM,"COc1cc(C(=O)N2CCC[C@@H](N)C2)cc2nc(-c3cc4ccc5cc4n3CCCCCCC3(CC3)C(=O)N[C@@H]5C)n(C)c12 [Example 155, (11~{R})-17-[5-[(3~{R})-3-aminopiperidine-1-carbonyl]-7-methoxy-1-methyl-benzimidazol-2-yl]-11-methyl-spiro[1,10-diazatricyclo[10.5.2.0^{15,18}]nonadeca-12(19),13,15(18),16-tetraene-8,1′-cyclopropane]-9-one]"
14,110 nM,"COc1cc(C(=O)N2CC[C@@H](OC)[C@@H](N)C2)cc2nc(-c3cc4ccc5nc4n3CCCCCc3cccnc3C(=O)N[C@@H]5C)n(C)c12 [Example 503, (2~{R})-17-[5-[(3~ {S},4~{R})-3-amino-4-methoxy-piperidine-1-carbonyl]-7-methoxy-1-methyl-benzimidazol-2-yl]-2-methyl-3,6,16,22-tetrazatetracyclo [14.5.2.0^{5,10).0^{19,23}] tricosa-1(22),5(10),6,8,17,19(23),20-heptaen-4-one]"
15,80 nM,"COc1cc(C(=O)N2[C@H]3CC[C@@H]2[C@H](N)C3)cc2nc(-c3cc4ccc5nc4n3CCC3(CCOCC(=O)N[C@@H]5C)CC3)c(C)n12 [Example 330, (11~{R})-17-[7-[(1~{R},2~{R},4~{S})-2-amino-7-azabicyclo[2.2.1]heptane-7-carbonyl]-5-methoxy-3-methyl-imidazo[1,2-a]pyridin-2-yl]-11-methyl-spiro[7-oxa-1,10,19-triazatricyclo[10.5.2.0^{15,18}]nonadeca-12(19),13,15(18),16-tetraene-4,1′-cyclopropane]-9-one]"
16,139 nM,"COc1cc(C(=O)N[C@H]2CNCC[C@@H]2F)cc2nc(-c3cc4ccc5nc4n3CC(F)(F)CCCc3ccccc3C(=O)N[C@@H]5C)n(C)c12 [Example 186, 2-[(2~{R})-14,14-difluoro-2-methyl-4-oxo-3,16,22-triazatetracyclo[14.5.2.0^{5,10}.0^{19,23}]tricosa-1(22),5(10),6,8,17,19(23),20-heptaen-17-yl]-~{N}-[(3~{S},4~{S})-4-fluoro-3-piperidyl]-7-methoxy-1-methyl-benzimidazole-5-carboxamide]"
17,91 nM,"C[C@H]1NC(=O)C2(CCCCCCn3c(-c4nc5cc(C(=O)N[C@H]6CNCC[C@@H]6F)c(F)cc5n4C)cc4ccc1nc43)CC(F)(F)C2 [Example 402, 2-[(11~{R})-1′,1′-difluoro-11-methyl-9-oxo-spiro[1,10,19-triazatricyclo[10.5.2.0^{15,18}]nonadeca-12(19),13,15(18),16-tetraene-8,3′-cyclobutane]-17-yl]-6-fluoro-~{N}-[(3~{S},4~{S})-4-fluoro-3-piperidyl]-1-methyl-benzimidazole-5-carboxamide]"
18,211 nM,"COc1cc(C(=O)N2C[C@H](N)C[C@H](C(F)F)C2)cc2nc(-c3cc4ccc5nc4n3CCCCC[C@@H]3C[C@H]3C(=O)N[C@@H]5C)n(C)c12 [Example 631, (2~{R},5~{R},7~{R})-14-[5-[(3~{R},5~{S})-3-amino-5-(difluoromethyl)piperidine-1-carbonyl]-7-methoxy-1-methyl-benzimidazol-2-yl]-2-methyl-3,13,19-triazatetracyclo[11.5.2.0^ {5,7}.0^{16,20}]icosa-1(19),14,16(20),17-tetraen-4-one]"
